Reference: US10493046B2, “5-hydroxytryptamine 1B receptor-stimulating agent for use as a promoter of satellite cells self-renewal and/or differentiation” (INSTITUT PASTEUR, priority 2015, dated 2019)

What was measured:
satellite cells [1] = test: Satellite cell (SC) number in tibialis anterior of treated mice (histological count or FACS cytometry); type: in vivo, mouse; conditions: GR127935 in osmotic pump together with vortioxetine I.P 12 days; Tg:Pax7nGFP mice
Procedure: For satellite cell counting, only the tibialis anterior muscle was dissected and digested as described earlier, and the totality of the tube was analysed to assess the number of satellite cells per muscle. FACS analysis was done using a FACSasia (Beckman). All analyses and quantitation were performed using Summit v4.3 software from DakoCytomation and FloJo software. […]
In order to count the number of satellite cells, the tibialis anterior (TA) of Tg:Pax7nGFP mice were digested and analysed by FACS in placebo and vortioxetine (12 days, 20 mg/Kg) treated mice. […] After 3 weeks of vortioxetine treatment, the number of satellite cells was even higher (9351 satellite cells±706, p=0.0079) but no statistically significant differences were found between 12 days and 3 weeks of treatment (p=0.15).

satellite cells [2] = test: FACS-sorted satellite cells in vitro, compound added to the culture medium; type: cell-based, mouse
Procedure: Muscle dissection was done as previously described in cold DMEM. Muscles were then chopped with small scissors and put in a 50 ml Falcon tube with collagenase 0.1% and trypsin 0.25% at 37° C. with gentle agitation. After 20 minutes, the supernatant was collected in 20% serum placed on ice, and the collagenase/trypsin solution was added to continue the digestion. Once muscle was completely digested, the solution was filtrated using 40 μm cell strainers. Satellite cells were cultured in 1:1 DMEM-Glutamax (Gibco#41965-039):MCDB201 (Sigma#M6770) containing 20% serum FBS (Biowest S1860). Medium was filtered using 0.22 μm filters. Cells were plated on Matrigel coating (BD Biosciences#354234) and kept in an incubator (37° C., 5% CO2). […] The thus-obtained supernatant replaced FBS in the culture medium; the rest of the medium was unchanged.
Satellite cells were isolated from Tg:Pax7nGFP mice and cells were plated at 2.000 cells per cm^2. After overnight, vortioxetine was added at 10 μM. […] 14 days post-plating, a higher number of reserve cells (Pax7 positive cells that are quiescent in vitro) were detected in the vortioxetine-treated cells (9%±0.7) than in the PBS (3.5%±0.9, p=0.01), and when GR127935 inhibitor was added in vitro the number of reserve cells dropped (3.5%±0.9, p=0.9) (FIG. 11c). […] This difference in expression was lost when SC were plated with the GR127935 5-HT1 BR inhibitor (p=0.4) (FIGS. 11c-e). The positive effects of vortioxetine were lost when GR127935 was added in vitro together with vortioxetine (FIGS. 11c-e). These effects were however persistent when adding the 5-HT2 BR antagonist (FIGS. 11c-e). This means that the positive effects observed when plating vortioxetine in vitro with satellite cells is mediated via the 5HT1B receptor and not 5HT2B.
To test whether, 2 derivatives of vortioxetine, namely histidine-vortioxetine and pyrrolidinium-vortioxetine, could have similar or improved effect compared to the unmodified vortioxetine, the in vitro approach as described in section 2.2.3 above was used and the differentiation cascade of satellite cells was investigated by assessing the expression pattern of Pax7 (a marker of stemness and quiescence) and Myogenin (MyoG, a marker of differentiation) as described above in section 2.2.3. To do so, satellite cells from Tg:Pax7-nGFP were isolated by FACS and plated at 2.000 cells per cm^2 (seeded overnight). The following day, the vortioxetine, its derivatives, or the control PBS was added at 10 μM and the cells were fixed at the indicated time points.

vessels = test: Vessel number in tibialis anterior of treated mice (Flk1GFP/+ or CD31 immunostaining); type: in vivo, mouse; conditions: GR127935 in osmotic pump together with vortioxetine I.P 12 days
cytokines = test: Plasmatic cytokine levels by Luminex in treated mice; parameters: species or system mouse; conditions: fluoxetine 6 weeks in vivo; vs placebo
From the text: Snap frozen plasma samples (n=6 per condition) were thawed out, and supernatant was processed for Luminex® multiple cytokine and chemokine analysis (Bio-Plex® Pro™ Mouse Cytokine Standard 23-Plex, Group I and Standard 9-Plex, Group II). Normalization was done by sample weight of frozen muscle. […]

HUVEC = test: In vitro HUVEC assay on cytodex beads in plasma of treated mice; type: cell-based, human; conditions: plasma from mice treated P.O 6 weeks; 4 days post plating
Procedure: C57Bl/6 mice were treated P.O for 6 weeks and plasma was extracted from blood. HUVEC cells were then plated on cytodex beads and cultured in either of the plasma. The growth of HUVEC incubated with plasma coming from treated animals was faster 4 days post plating (p≤0.0001) (FIGS. 2m-o).

[3] = tested on: serotonin receptors subtypes; test: RT-qPCR of serotonin receptor subtypes in FACS-sorted muscle cells after treatment; type: in vivo, mouse; conditions: 6 weeks P.O fluoxetine; FACS-sorted endothelial cells
Procedure: Total RNA was isolated from cells using the RNAeasy Micro kit (Qiagen). The total RNA was reverse-transcribed using Superscript® III Reverse transcriptase (Invitrogen). Real-time quantitative PCR was performed using Power Sybr Green PCR Master Mix (Applied Biosystems) and the rate of dye incorporation was monitored using the StepOne™ Plus RealTime PCR system (Applied Biosystems). At least three biological replicates were used for each condition. Data were analyzed by StepOne Plus RT PCR software v2.1 and Microsoft excel. GAPDH transcript levels were used for normalisation of each target (=ΔCT). Real-time PCR CT values were analyzed using the 2-(ΔΔCt) method to calculate the fold expression (ΔΔCTmethod, Livak et al., 2001).
RT-qPCR was then performed on serotonin receptors subtypes to further characterize by which the endothelial cells could be activated (FIG. 5b). […] The same observation was made in FACS cell-sorted SC from Tg:Pax7nGFP mice (FIG. 5b).

primary human myoblasts = test: Primary human myoblasts plated in plasma from treated mice; type: cell-based; conditions: plasma from fluoxetine-treated mice
[4] = tested on: extensor digitorum longus (edl) fibers; test: Tension of isolated muscle fibers of mdx mice; type: in vivo, mouse; conditions: fluoxetine treated mdx mice
Procedure: Small bundles of two to five fibers were manually isolated from the muscles as previously described. Chemical skinning was carried out using Triton X-100. Skinned fibers were mounted in the Displacement Measuring System KD 2300 (model 0.5 SU, Kaman Instrumentation, Colorado Springs, Colo., USA). To perform force measurements, skinned fiber preparations were incubated for 1 h in relaxing solution (pCa 9.0, low calcium content) containing 1% Triton X-100 (v/v) to solubilize the sarcolemma and the sarcoplasmic reticulum membranes, and were subsequently washed several times in relaxing solution without detergent. Fibres were adjusted to slack length and then stretched progressively until the tension developed became maximal. Isometric tension was recorded continuously using a chart recorder (model 1200, Linear, Reno, Nev., USA). The tension obtained was normalized to fibre cross-sectional area.
This was confirmed on soleus muscle (data not shown).

SMILES | Number of SC (satellite cells [1]) [SC per TA] | Positive effects of vortioxetine (incl. MyoG expression difference) when GR127935 added (satellite cells [2]; GR127935 added in vitro together with vortioxetine 10 μM) | Pax7 positive cells 4 days post-plating (satellite cells [2]; vortioxetine 10 μM incubated with the GR127935 inhibitor) [%] | Reserve cells (quiescent Pax7 positive cells) 14 days post-plating (satellite cells [2]; vortioxetine 10 μM, GR127935 inhibitor added in vitro) [%] | Number of vessels (vessels) [vessels per mm^2] | Levels of IL-1a, IL-1b, IL-2 and eotaxin (cytokines) | Levels of IL-4 and IL-13 (cytokines) | Growth of HUVEC vs placebo plasma (HUVEC) | Expression of other subtypes (5-HT1 AR, 5-HT1 DR, 5-HT1 FR, 5-HT2 AR, 5-HT2 CR) [3] | Differentiation 4 days post-plating vs placebo plasma (primary human myoblasts) | Self-renewal of the cells 14 days post-plating vs placebo plasma (primary human myoblasts) | Force increase of isolated single fibers of extensor digitorum longus (edl) [4] [%]
COc1ccc(NC(=O)c2ccc(-c3ccc(-c4noc(C)n4)cc3C)cc2)cc1N1CCN(C)CC1 [GR127935] | 5540±411 | lost | 25.5 | 3.5 | 928±207 |  |  |  |  |  |  | 
CNCCC(Oc1ccc(C(F)(F)F)cc1)c1ccccc1 (stereo not drawn) [fluoxetine] |  |  |  |  |  | downregulated | upregulated | faster | non-statistically significant increase | faster differentiation | higher self-renewal | 45
